From the supplement of paper PMC10733146

Experiments:
Test in all cases: viability relative to DMSO control (fraction); higher = less drug effect (more viable cells)
Settings in all cases: 48 h
[1] = tested on: primary AML patient cells (S079)
Procedure, shortened: (§1)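 Using 384-well plates with compounds already plated at five concentrations, one well per concentration, 4 × 10^4 primary mononuclear tumour cells were added per well. Cells were Ficoll-isolated from blood or bone marrow or came from processed lymph node, fresh or cryopreserved. They were kept for 48 h at 37 °C and 5% CO2 in RPMI-1640 supplemented with penicillin/streptomycin, L-glutamine and human serum, and viability was read as CellTiter-Glo luminescence relative to the median of 16 inner DMSO wells.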

[2] = tested on: primary MCL patient cells (S053)
Procedure, shortened: as §1

[3] = tested on: primary MCL patient cells (S063)
Procedure, shortened: as §1

[4] = tested on: primary AML patient cells (S056)
Procedure, shortened: as §1

[5] = tested on: primary AML patient cells (S012)
Procedure, shortened: as §1

[6] = tested on: primary AML patient cells (S006)
Procedure, shortened: as §1

[7] = tested on: primary MCL patient cells (S041)
Procedure, shortened: as §1

[8] = tested on: primary AML patient cells (S072)
Procedure, shortened: as §1

[9] = tested on: primary AML patient cells (S060)
Procedure, shortened: as §1

[10] = tested on: primary CLL patient cells (S031)
Procedure, shortened: as §1

[11] = tested on: primary AML patient cells (S009)
Procedure, shortened: as §1

[12] = tested on: primary ALL patient cells (S088)
Procedure, shortened: as §1

[13] = tested on: primary AML patient cells (S085)
Procedure, shortened: as §1

[14] = tested on: primary CLL patient cells (S043)
Procedure, shortened: as §1

[15] = tested on: primary DLBCL patient cells (S082)
Procedure, shortened: as §1

[16] = tested on: primary AML patient cells (S017)
Procedure, shortened: as §1

[17] = tested on: primary FL patient cells (S087)
Procedure, shortened: as §1

[18] = tested on: primary B-PLL patient cells (S016)
Procedure, shortened: as §1

[19] = tested on: primary AML patient cells (S071)
Procedure, shortened: as §1

[20] = tested on: primary BL patient cells (S005)
Procedure, shortened: as §1

CC(C)c1cc(C(=O)N2Cc3ccc(CN4CCN(C)CC4)cc3C2)c(O)cc1O [Onalespib]
viability ([1]; 0.0032 µM): 0.872
viability ([1]; 0.016 µM): 0.888
viability ([1]; 0.08 µM): 0.555
viability ([1]; 0.4 µM): 0.381
viability ([1]; 2 µM): 0.322
viability ([2]; 0.0032 µM): 0.837
viability ([2]; 0.016 µM): 1.12
viability ([2]; 0.08 µM): 0.356
viability ([2]; 0.4 µM): 0.345
viability ([2]; 2 µM): 0.306
viability ([3]; 0.0032 µM): 0.9
viability ([3]; 0.016 µM): 1.27
viability ([3]; 0.08 µM): 0.447
viability ([3]; 0.4 µM): 0.1
viability ([3]; 2 µM): 0.0867
viability ([4]; 0.0032 µM): 0.743
viability ([4]; 0.016 µM): 0.29
viability ([4]; 0.08 µM): 0.142
viability ([4]; 0.4 µM): 0.164
viability ([4]; 2 µM): 0.174
viability ([5]; 0.0032 µM): 0.973
viability ([5]; 0.016 µM): 1.02
viability ([5]; 0.08 µM): 0.657
viability ([5]; 0.4 µM): 0.139
viability ([5]; 2 µM): 0.15
viability ([6]; 0.0032 µM): 0.788
viability ([6]; 0.016 µM): 0.312
viability ([6]; 0.08 µM): 0.124
viability ([6]; 0.4 µM): 0.213
viability ([6]; 2 µM): 0.239
viability ([7]; 0.0032 µM): 0.95
viability ([7]; 0.016 µM): 1.05
viability ([7]; 0.08 µM): 0.724
viability ([7]; 0.4 µM): 0.53
viability ([7]; 2 µM): 0.445
viability ([8]; 0.0032 µM): 0.919
viability ([8]; 0.016 µM): 1.02
viability ([8]; 0.08 µM): 0.486
viability ([8]; 0.4 µM): 0.422
viability ([8]; 2 µM): 0.38
viability ([9]; 0.0032 µM): 0.967
viability ([9]; 0.016 µM): 1.15
viability ([9]; 0.08 µM): 0.61
viability ([9]; 0.4 µM): 0.169
viability ([9]; 2 µM): 0.109
viability ([10]; 0.0032 µM): 0.896
viability ([10]; 0.016 µM): 0.929
viability ([10]; 0.08 µM): 0.432
viability ([10]; 0.4 µM): 0.235
viability ([10]; 2 µM): 0.246
viability ([11]; 0.0032 µM): 1.15
viability ([11]; 0.016 µM): 0.852
viability ([11]; 0.08 µM): 0.686
viability ([11]; 0.4 µM): 0.568
viability ([11]; 2 µM): 0.648
viability ([12]; 0.0032 µM): 0.659
viability ([12]; 0.016 µM): 0.582
viability ([12]; 0.08 µM): 0.255
viability ([12]; 0.4 µM): 0.273
viability ([12]; 2 µM): 0.253
viability ([13]; 0.0032 µM): 0.928
viability ([13]; 0.016 µM): 0.942
viability ([13]; 0.08 µM): 0.334
viability ([13]; 0.4 µM): 0.233
viability ([13]; 2 µM): 0.237
viability ([14]; 0.0032 µM): 0.987
viability ([14]; 0.016 µM): 1.1
viability ([14]; 0.08 µM): 0.811
viability ([14]; 0.4 µM): 0.585
viability ([14]; 2 µM): 0.395
viability ([15]; 0.0032 µM): 0.967
viability ([15]; 0.016 µM): 1.24
viability ([15]; 0.08 µM): 1.03
viability ([15]; 0.4 µM): 1.22
viability ([15]; 2 µM): 0.961
viability ([16]; 0.0032 µM): 0.93
viability ([16]; 0.016 µM): 1.11
viability ([16]; 0.08 µM): 0.675
viability ([16]; 0.4 µM): 0.33
viability ([16]; 2 µM): 0.281
viability ([17]; 0.0032 µM): 0.962
viability ([17]; 0.016 µM): 1.02
viability ([17]; 0.08 µM): 0.853
viability ([17]; 0.4 µM): 0.84
viability ([17]; 2 µM): 0.871
viability ([18]; 0.0032 µM): 0.875
viability ([18]; 0.016 µM): 1.35
viability ([18]; 0.08 µM): 0.668
viability ([18]; 0.4 µM): 0.69
viability ([18]; 2 µM): 0.629
viability ([19]; 0.0032 µM): 0.847
viability ([19]; 0.016 µM): 0.379
viability ([19]; 0.08 µM): 0.149
viability ([19]; 0.4 µM): 0.169
viability ([19]; 2 µM): 0.168
viability ([20]; 0.0032 µM): 1.56
viability ([20]; 0.016 µM): 1.32
viability ([20]; 0.08 µM): 1.42
viability ([20]; 0.4 µM): 0.756
viability ([20]; 2 µM): 0.792
